We go through three compounds from US8361796B2, “Method for generating primate cardiovascular progenitor cells for clinical use from primate embryonic stem cells or embryonic-like state cells, and their applications” (Assistance Publique—Hopitaux de Paris, priority 2008, dated 2013).

The target in one experiment is EGF receptor (Homo sapiens, UniProt P00533). The conditions noted are these: cited from earlier work.
The target in experiment [1] is fibroblast growth factor receptor 1 (FGFR1) (Homo sapiens, UniProt P11362). Particulars: read-out: IC50, tyrosine kinase activity of FGFR1; in the presence of 1 mM ATP; cited from earlier work.
For the next experiment, the system named is ERK1 and ERK2. Particulars: read-out: IC50, aFGF-induced tyrosine phosphorylation of ERK1 and ERK2; cited from earlier work.
The target of a further experiment is insulin receptor (Homo sapiens, UniProt P06213). The conditions noted are these: cited from earlier work.
The test system of another experiment is PDGF receptor. Particulars: cited from earlier work.
The test system of a further experiment is CD15+ cells. Put plainly: Differentiation of CD15+ sorted cells treated with VEGF or PDGF. It is filed as cell-based, primate. The conditions noted are these: 10 or 50 ng/ml. How it is done:
FIGS. 11A, 11B and 11C: CD15+ cells express cardiac, endothelial and vascular proteins markers; CD15+ sorted cells were cultured for 5 days on MEF and immunostained with the indicated markers; some cells were treated with VEGF or PDGF and immunostained with anti smooth muscle actin and myosin or CD31. Some others were cultured with human fibroblast isolated from the myocardium and stained with an anti-actinin antibody.
When cultured on human cardiac fibroblasts, CD15+ cells differentiate into actinin-positive cardiomyocytes.

fibroblast growth factor receptor 1 (FGFR1), sequence (P11362 22-822, species assumed): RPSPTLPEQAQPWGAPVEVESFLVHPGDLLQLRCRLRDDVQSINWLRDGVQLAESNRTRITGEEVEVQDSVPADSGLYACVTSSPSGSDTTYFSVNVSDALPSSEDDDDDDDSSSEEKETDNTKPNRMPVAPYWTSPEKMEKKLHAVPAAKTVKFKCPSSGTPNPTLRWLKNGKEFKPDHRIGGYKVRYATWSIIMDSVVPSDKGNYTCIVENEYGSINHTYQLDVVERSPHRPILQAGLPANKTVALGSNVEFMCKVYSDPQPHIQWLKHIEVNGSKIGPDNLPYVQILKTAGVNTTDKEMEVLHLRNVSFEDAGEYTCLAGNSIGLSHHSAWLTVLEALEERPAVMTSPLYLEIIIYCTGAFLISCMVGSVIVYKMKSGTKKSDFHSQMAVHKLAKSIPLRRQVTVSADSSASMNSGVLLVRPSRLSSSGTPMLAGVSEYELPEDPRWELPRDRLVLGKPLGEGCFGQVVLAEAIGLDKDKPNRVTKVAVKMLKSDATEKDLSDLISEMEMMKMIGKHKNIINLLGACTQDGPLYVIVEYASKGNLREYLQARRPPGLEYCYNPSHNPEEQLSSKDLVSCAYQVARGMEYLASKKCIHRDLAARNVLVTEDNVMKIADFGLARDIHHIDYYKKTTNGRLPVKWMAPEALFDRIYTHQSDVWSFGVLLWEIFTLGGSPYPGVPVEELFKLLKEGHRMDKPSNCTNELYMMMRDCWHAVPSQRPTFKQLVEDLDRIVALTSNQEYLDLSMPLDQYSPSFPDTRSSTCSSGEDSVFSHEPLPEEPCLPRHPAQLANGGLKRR
insulin receptor, sequence (P06213 28-1382, species assumed): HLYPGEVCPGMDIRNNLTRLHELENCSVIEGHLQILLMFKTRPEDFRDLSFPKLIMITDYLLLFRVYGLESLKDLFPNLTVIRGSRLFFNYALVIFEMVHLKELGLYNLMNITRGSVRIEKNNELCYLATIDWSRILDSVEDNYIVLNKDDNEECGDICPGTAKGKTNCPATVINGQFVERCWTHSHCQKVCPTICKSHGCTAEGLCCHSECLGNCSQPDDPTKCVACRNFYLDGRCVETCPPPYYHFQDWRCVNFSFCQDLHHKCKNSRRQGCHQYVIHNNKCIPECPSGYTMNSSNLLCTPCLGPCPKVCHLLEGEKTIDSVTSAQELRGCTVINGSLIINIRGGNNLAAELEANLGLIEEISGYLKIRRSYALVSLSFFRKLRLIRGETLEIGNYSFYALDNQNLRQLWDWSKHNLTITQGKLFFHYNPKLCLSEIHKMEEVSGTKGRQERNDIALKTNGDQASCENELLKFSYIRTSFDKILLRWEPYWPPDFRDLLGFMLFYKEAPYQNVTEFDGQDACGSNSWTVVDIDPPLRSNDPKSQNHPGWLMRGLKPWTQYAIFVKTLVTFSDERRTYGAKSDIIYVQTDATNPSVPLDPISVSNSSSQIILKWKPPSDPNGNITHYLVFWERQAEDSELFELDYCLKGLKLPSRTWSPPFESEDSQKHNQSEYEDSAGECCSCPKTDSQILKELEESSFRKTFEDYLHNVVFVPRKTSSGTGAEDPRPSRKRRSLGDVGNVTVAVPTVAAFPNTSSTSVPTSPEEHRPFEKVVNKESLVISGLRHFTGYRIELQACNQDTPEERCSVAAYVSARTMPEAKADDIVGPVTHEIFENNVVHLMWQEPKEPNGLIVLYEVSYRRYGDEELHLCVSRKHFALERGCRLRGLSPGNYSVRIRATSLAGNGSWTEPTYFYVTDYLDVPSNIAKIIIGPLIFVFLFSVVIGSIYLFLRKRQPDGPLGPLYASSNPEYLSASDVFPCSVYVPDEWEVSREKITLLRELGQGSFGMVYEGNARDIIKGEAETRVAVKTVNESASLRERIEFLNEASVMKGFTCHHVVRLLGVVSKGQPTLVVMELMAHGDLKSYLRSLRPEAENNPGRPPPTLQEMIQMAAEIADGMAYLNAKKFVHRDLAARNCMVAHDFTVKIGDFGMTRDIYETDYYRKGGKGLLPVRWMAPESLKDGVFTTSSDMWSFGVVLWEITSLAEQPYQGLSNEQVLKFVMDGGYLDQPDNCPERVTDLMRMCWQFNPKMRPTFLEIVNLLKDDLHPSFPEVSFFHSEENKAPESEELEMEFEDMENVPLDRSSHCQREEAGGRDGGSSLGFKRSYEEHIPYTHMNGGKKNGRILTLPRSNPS
EGF receptor, sequence (P00533 25-1210): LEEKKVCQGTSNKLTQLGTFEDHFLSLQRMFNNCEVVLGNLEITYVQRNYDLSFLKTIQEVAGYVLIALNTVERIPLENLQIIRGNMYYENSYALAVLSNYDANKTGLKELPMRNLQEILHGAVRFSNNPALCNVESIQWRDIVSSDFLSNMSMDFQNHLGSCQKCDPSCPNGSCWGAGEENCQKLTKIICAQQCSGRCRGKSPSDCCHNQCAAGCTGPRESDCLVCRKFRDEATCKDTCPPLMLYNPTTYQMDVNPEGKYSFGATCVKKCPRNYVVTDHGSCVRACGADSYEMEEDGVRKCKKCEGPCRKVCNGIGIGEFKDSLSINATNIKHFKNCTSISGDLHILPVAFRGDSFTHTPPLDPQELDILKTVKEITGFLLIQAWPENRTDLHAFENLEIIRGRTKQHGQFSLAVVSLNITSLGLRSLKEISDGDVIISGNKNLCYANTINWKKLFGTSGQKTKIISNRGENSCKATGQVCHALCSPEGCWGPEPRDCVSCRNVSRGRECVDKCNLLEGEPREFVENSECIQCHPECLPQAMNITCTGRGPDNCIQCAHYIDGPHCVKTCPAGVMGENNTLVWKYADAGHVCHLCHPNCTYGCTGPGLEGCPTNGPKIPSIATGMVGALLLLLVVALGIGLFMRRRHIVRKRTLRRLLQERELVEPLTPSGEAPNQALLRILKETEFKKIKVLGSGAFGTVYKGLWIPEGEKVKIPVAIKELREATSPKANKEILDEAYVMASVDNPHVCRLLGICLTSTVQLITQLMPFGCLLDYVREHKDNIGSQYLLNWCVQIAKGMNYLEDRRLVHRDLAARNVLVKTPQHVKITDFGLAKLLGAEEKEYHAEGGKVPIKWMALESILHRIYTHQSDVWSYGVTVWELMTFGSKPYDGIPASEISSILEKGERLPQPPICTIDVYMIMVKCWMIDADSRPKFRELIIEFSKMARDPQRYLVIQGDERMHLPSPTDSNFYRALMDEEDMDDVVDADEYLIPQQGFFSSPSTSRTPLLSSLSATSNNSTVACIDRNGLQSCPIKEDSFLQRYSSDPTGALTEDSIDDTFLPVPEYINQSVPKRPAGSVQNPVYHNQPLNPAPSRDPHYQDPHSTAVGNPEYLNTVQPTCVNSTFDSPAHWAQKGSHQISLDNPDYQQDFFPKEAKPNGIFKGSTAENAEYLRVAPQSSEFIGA
Experimental for HUES-1 cells: HES cells were treated for 48 hrs with 10 ng/ml BMP2 in the presence or absence of 1 μM SU5402, a FGF receptor inhibitor, in low KO™SR (5%) containing KO™-DMEM.
Gene induction was tested using real time Q-PCR.

For `Cc1c[nH]c(C=C2C(=O)Nc3ccccc32)c1CCC(=O)O` [SU5402, 3-[3-(2-Carboxyethyl)-4-methylpyrrol-2-methylidenyl]-2-indolinone], the “inhibition of the kinase activity of the EGF receptor” value at EGF receptor is given as “does not inhibit”. Also, the IC50 is 10 to 20 µM in experiment [1]; 10 to 20 µM in the experiment with ERK1 and ERK2. Further, the “enhancement of BMP2 induction of mesodermal and cardiac genes” value in the experiment on HUES-1 cells (48 hrs, 10 ng/ml BMP2 with 1 μM SU5402 versus BMP2 alone) is recorded as 3-10 folds. The “enhancement of BMP2 instructive action” value with HUES-1 cells (defined (KOSR) medium, SU5402 added to BMP2) is recorded as “dramatically enhanced”. Moreover, the “inhibition of phosphorylation of the insulin receptor” value on insulin receptor is “does not inhibit”. The “inhibition of tyrosine phosphorylation of the PDGF receptor” value in the experiment with PDGF receptor is on record as “only a weak inhibitor”.
With PDGF, the “fate of CD15+ cells” value in the experiment on CD15+ cells is “smooth muscle cells”.
For the compound VEGF, in the experiment on CD15+ cells, the “fate of CD15+ cells” value is given as “endothelial”.
